The numbers were not newly measured in publication PMC7693160 (Pharmaceutics, 2020), which cites them from elsewhere.

Structures are written as SMILES. pKi: −log10 of the molar value.

Among the test systems are CYP2C9 1*/3*; CYP2C9 1*/1*; CYP2C9 3*/3*.
Holding throughout (parameters): method as in Kumar et al. 43
Details in all cases: ref Kumar et al. 43, read-out: Perpetrator in vitro Ki; cited from earlier work

One may read the pKi as the Ki on a negative log10 scale, so that one unit is a factor of ten. In the case of `OC(Cn1cncn1)(Cn1cncn1)c1ccc(F)cc1F` [Fluconazole, fluconazole], the results for the pKi with CYP2C9 1*/3*, with CYP2C9 1*/1* and with CYP2C9 3*/3* were 4.77, 4.96 and 4.64, respectively.
